According to article PMC12040169 (PLOS Biology, 2025):

Test: in vitro
Conditions: human, hela cells, % viability

First: O=C1CCCN1CCCNC(=O)N1CCN(Cc2ccccc2)CC1 [CBK155658]
Second: CN1CCC(N2CCN(C(=O)NCc3cccnc3)CC2)CC1 [CBK155889]
The viability at 28.5 h, 10 µM of the first is higher: 104% for the first, 89.2% for the second.

Compared with `Cc1cc(Cl)cc(Cl)c1S(=O)(=O)Nc1cccc(C(=O)O)c1` [CBK155682], `O=C(O)c1cccc(NS(=O)(=O)c2c(Cl)cc(C(F)(F)F)cc2Cl)c1` [CBK155721] is higher in viability at 28.5 h, 10 µM: 93% for the first, 96.3% for the second.

First: O=C(O)c1cccc(NS(=O)(=O)c2cccc(Cl)c2Cl)c1 [CBK155686]
Second: O=C(O)c1cccc(NS(=O)(=O)c2cccnc2)c1 [CBK155700]
The viability at 28.5 h, 10 µM of the first is lower: 94.7% for the first, 101% for the second.

Going from `O=C(O)c1cccc(NS(=O)(=O)c2ccc(F)c(C(F)(F)F)c2)c1` [CBK155693] to `O=C(O)c1cccc(NS(=O)(=O)c2ccc(Br)cc2C(F)(F)F)c1` [CBK155724], the viability at 28.5 h, 10 µM falls from 97.2% to 90.9%.

Compared with `O=C(O)c1cccc(NS(=O)(=O)c2ccc3c(c2)OCCO3)c1` [CBK155697], `O=C(O)c1cccc(NS(=O)(=O)c2ccccc2)c1` [CBK155710] is lower in viability at 28.5 h, 10 µM: 96.9% for the first, 79.7% for the second.

Compared with `N#Cc1c(Cl)cccc1Oc1ccc(S(=O)(=O)Nc2cccc(C(=O)O)c2)cc1` [CBK155718], `O=C(O)c1cccc(NS(=O)(=O)c2ccc(-c3cnco3)cc2)c1` [CBK155726] is lower in viability at 28.5 h, 10 µM: 108% for the first, 97.4% for the second.

Compared with `O=C(O)c1cccc(NS(=O)(=O)c2ccc(-c3cc(C(F)(F)F)on3)s2)c1` [CBK155722], `O=C(O)c1cccc(NS(=O)(=O)c2cc(C(F)(F)F)cc(C(F)(F)F)c2)c1` [CBK155725] is higher in viability at 28.5 h, 10 µM: 98% for the first, 102% for the second.

First: CN(C)S(=O)(=O)Nc1ccc2c(ccn2Cc2ccccc2)c1 [CBK155765]
Second: O=S(=O)(/C=C/c1ccccc1)Nc1cccc2cc[nH]c12 [CBK155788]
The viability at 28.5 h, 10 µM of the first is higher: 86.6% for the first, 82.7% for the second.

Compared with `N#Cc1cccc(S(=O)(=O)Nc2cccc3[nH]ccc23)c1` [CBK155771], `O=C1CN(C(=O)Nc2ccc3[nH]ccc3c2)CCN1` [CBK155858] is higher in viability at 28.5 h, 10 µM: 60.6% for the first, 87% for the second.

Compared with `O=C1CN(C(=O)NCC2COc3ccccc3O2)CCN1` (stereo not shown) [CBK155847], `O=C1CN(C(=O)NC2CCc3ccccc32)CCN1` (stereo not shown) [CBK155878] is higher in viability at 28.5 h, 10 µM: 88.3% for the first, 97.5% for the second.

First: O=C1CN(C(=O)NC(c2ccccc2)c2ccccc2)CCN1 [CBK155853]
Second: CC(NC(=O)N1CCNC(=O)C1)c1ccccc1 (stereo not shown) [CBK155877]
The viability at 28.5 h, 10 µM of the first is lower: 93.6% for the first, 96% for the second.

Going from `O=C1CN(C(=O)NCC2CCCCC2)CCN1` [CBK155854] to `CC(C)CNC(=O)N1CCNC(=O)C1` [CBK155864], the viability at 28.5 h, 10 µM rises from 85.9% to 86.4%.

Going from `CC(=O)Nc1cccc(NC(=O)N2CCNC(=O)C2)c1` [CBK155863] to `O=C1CN(C(=O)NCc2ccc(Cl)cc2)CCN1` [CBK155867], the viability at 28.5 h, 10 µM rises from 77.7% to 109%.

Going from `O=C1CN(C(=O)NCCc2c[nH]c3ccccc23)CCN1` [CBK155866] to `CC(C)CCNC(=O)N1CCNC(=O)C1` [CBK155874], the viability at 28.5 h, 10 µM rises from 95.8% to 98.3%.

First: COc1cc(NC(=O)N2CCNC(=O)C2)cc(OC)c1OC [CBK155875]
Second: COc1cc(NC(=O)N2CCCCC2CO)cc(OC)c1OC (stereo not shown) [CBK155986]
The viability at 28.5 h, 10 µM of the first is higher: 104% for the first, 92% for the second.

Compared with `CN1CCC(N2CCN(C(=O)NCC3COc4ccccc4O3)CC2)CC1` (stereo not shown) [CBK155881], `CN1CCC(N2CCN(C(=O)NCc3ccc4c(c3)OCO4)CC2)CC1` [CBK155885] is lower in viability at 28.5 h, 10 µM: 107% for the first, 88.3% for the second.

First: CSCCCNC(=O)N1CCN(C2CCN(C)CC2)CC1 [CBK155882]
Second: CC(C)CNC(=O)N1CCN(C2CCN(C)CC2)CC1 [CBK155902]
The viability at 28.5 h, 10 µM of the first is higher: 101% for the first, 95.3% for the second.

First: COc1cc(CNC(=O)N2CCN(C3CCN(C)CC3)CC2)cc(OC)c1OC [CBK155893]
Second: CN1CCC(N2CCN(C(=O)Nc3ccc4c(c3)OCCO4)CC2)CC1 [CBK155898]
The viability at 28.5 h, 10 µM of the first is higher: 93.3% for the first, 87% for the second.

Going from `CC(C)C(=O)N1CCC(OCc2ccc(-c3ccc(C(=O)N(C)C)cc3)cc2S(C)(=O)=O)CC1` [CBK155921] to `CN(C)C(=O)N1CCC2(CC1)CC(=O)N(Cc1ccc(S(C)(=O)=O)cc1)C2=O` [CBK155957], the viability at 28.5 h, 10 µM rises from 102% to 104%.

Compared with `CC(C)(C)COC(=O)N1CCC2(CC1)CC(=O)N(Cc1ccc(S(C)(=O)=O)cc1)C2=O` [CBK155949], `COc1ccc(OC(=O)N2CCC3(CC2)CC(=O)N(Cc2ccc(S(C)(=O)=O)cc2)C3=O)cc1` [CBK155952] is higher in viability at 28.5 h, 10 µM: 91.4% for the first, 99.3% for the second.

Going from `COc1ccc(CNC(=O)N2CCCCC2CO)cc1OC` (stereo not shown) [CBK155981] to `CC(NC(=O)N1CCCCC1CO)c1ccccc1` (stereo not shown) [CBK155988], the viability at 28.5 h, 10 µM rises from 92.8% to 93.1%.

Going from `O=C(Nc1cccnc1)N1CCCCC1CO` (stereo not shown) [CBK155990] to `CSCCCNC(=O)N(C)C1CCN(C)C1` (stereo not shown) [CBK155995], the viability at 28.5 h, 10 µM rises from 96.9% to 104%.

With `CN1CCC(N(C)C(=O)NCCN2CCOCC2)C1` (stereo not shown) [CBK156002] the viability at 28.5 h, 10 µM was 96.3%.

Same assay, conditions: human, hela cells, % viability, bulk resorufin, single well

Work on `COc1cc(C(=O)N2CCC(N3C(=O)Cc4ccccc43)CC2)ccc1C` [CBK155465] yielded a viability at 28.5 h, 10 µM of 84.2%.
